Activity calls are given as the source filed them. The calls are words filed in the database; no cut-off is given here.

The species named for one assay is Mus musculus. Kind of assay: Growth inhibition of mouse 26-L5 cells at 3 ug/ml by WST1 method. The format is functional. Background: Tetrazolium assays rely on reduction of a dye to a coloured formazan, in cell work by metabolically active cells.
The nature of assay [1]: Inhibition of invasion of mouse 26-L5 cells. The format is functional.

One may read the IC50 as the concentration at which inhibition is half-maximal. In the case of `Cc1c(O)c(CCC(C)C)c2c(c1O)C(=O)c1cccc(O)c1C2=O` [LUPINACIDIN A], the result in the assay listed under Mus musculus was Active. For the same compound, the IC50 in assay [1] came out at 210 nM.

`CCCCc1c(O)c(C)c(O)c2c1C(=O)c1c(O)cccc1C2=O` [LUPINACIDIN B]: the result in the assay listed under Mus musculus was inactive. The IC50 in assay [1] was 920 nM.
